Measured values reported in patent US7371829B2, “Haptens, immunogens, antibodies and conjugates to ketamine and its metabolites” (Randox Laboratories Limited, priority 2002, dated 2008).

Key:
[1] = tested on: antibodies to phenylcyclohexylamine derivative immunogens; conditions: Abbott immunoassay, Table 3(c) at page 18; cited from earlier work
[2] = tested on: antibodies to PCP and other arylcyclohexylamines; conditions: as indicated by high IC50 values, Table 1, page 667 of Owens et al; cited from earlier work
[3] = tested on: antiserum raised to immunogen C (hapten C-BSA), IgG fraction; test: Competitive ELISA microtiter plate assay for ketamine and norketamine (conjugate A, hapten A-HRP, as detection reagent); type: binding, sheep; conditions: for IC50, CR = concentration of potential cross-reactant that causes 50% displacement of signal: potential cross-reactants, standards 0-500 ng/ml
Protocol: An aqueous solution of the immunogen prepared in Example 10 was formulated with Freund's Complete Adjuvant (FCA) to form an emulsion consisting of 4 mg/ml immunogen in 50% (v/v) FCA. Three sheep were immunised with this emulsion (1° immunisation), 0.25 ml being subcutaneously injected at each of four sites in the flank of each animal. The next immunisation (boost 1) contained 2 mg/ml immunogen and subsequent immunizations (boosts 2 to 11) contained 1 mg/ml immunogen. All boosts were emulsified in 50% (v/v) Freund's Incomplete Adjuvant (FIA) and were administered in the same manner as the 1° immunisation, at monthly intervals for 1 year. Blood sampling took place 7 to 14 days after each boost. Each sample was processed to produce antiserum, which was further purified by caprylic acid and ammonium sulfate precipitation to yield an immunoglobulin G (IgG) fraction. The IgG fraction was evaluated by competitive ELISA microtiter plate assay, as described in Example 16 below.
The wells of an enhanced binding 96 well polystyrene microtiter plate were coated with the IgG fraction of the antiserum raised to immunogen C (hapten C-BSA) (Example 10), diluted in 10 mM Tris, pH 8.5 (125 μl/well). The appropriate antibody coating dilution was determined using standard ELISA checkerboard techniques. The plate was incubated for 2 hours at 37° C., washed 4 times with Tris buffered saline containing Tween 20 (TBST) and tapped dry. Standard solutions of ketamine and norketamine were prepared in TBST at 0, 0.1, 0.5, 1, 5, 25, 100 and 500 ng/ml and 50 μl of each was added to the appropriate wells (FIG. 4). 75 μl of conjugate A (hapten A-HRP) (Example 11), diluted in Tris buffer (pH 7.2) containing EDTA, D-mannitol, sucrose, thimerosal and BSA, was added to each of the wells, as shown in FIG. 4. The appropriate dilution of conjugate was also determined using standard ELISA checkerboard techniques. The plate was incubated at 37° C. for 2 hours. Excess unbound conjugate was removed by washing 6 times over a 10 minute period with TBST.
125 μl of tetramethylbenzidine (TMB) substrate solution was added to each well of the plate that was then incubated for 15 to 20 minutes in the dark at room temperature. The reaction was terminated by addition of 125 μl 0.2M H2SO4 to each well. The absorbance was then measured at 450 nm using a microtiter plate reader.
In order to determine the specificity of the competitive ELISA for ketamine and norketamine, standard solutions were prepared in TBST at 0, 0.1, 0.5, 1, 5, 25, 100 and 500 ng/ml. Employing each series of standards in the ketamine competitive ELISA, calibration curves were generated and these were used to determine the cross-reactivity of the immunoassay with these substances. The results of this study are presented in Table 2, cross-reactivity of potential cross-reactants phencyclidine and dextromethorphan being calculated according to the following formula: % CR=IC50, Ketamine/IC50, CR×100
Where %CR is the percentage cross-reactivity, IC50, Ketamine is the concentration of ketamine that causes 50% displacement of signal and IC50, CR is the concentration of potential cross-reactant that causes 50% displacement of signal.

[4] = tested on: Neogen kit antibodies developed against a ketamine hapten; conditions: Neogen ELISA kit; cited from earlier work
[5] = tested on: antibodies against five epitopes of phencyclidine (PCP)-like molecules; conditions: antibodies to PCP-like haptens conjugated to BSA; Table 2, page 475 of Owens et al; cited from earlier work
[6] = antiserum to immunogen C, conjugate A
[7] = standard concentration 0.1 ng/ml
[8] = standard concentration 0.5 ng/ml
[9] = standard concentration 25 ng/ml
[10] = standard concentration 100 ng/ml
[11] = standard concentration 500 ng/ml
[12] = % CR=IC50, Ketamine/IC50, CR×100

Compound	cross-reactivity [1]	cross-reactivity [2]	% CR = percentage cross-reactivity based on specificity to ketamine [3, 6] [%]	IC50 = standard concentration which produces 50% B/B0 [3, 6] [mg/L]	% B/B0 [3, 7] [%]	% B/B0 [3, 8] [%]	% B/B0 ([3]; standard concentration 1 ng/ml) [%]	% B/B0 ([3]; standard concentration 5 ng/ml) [%]	% B/B0 [3, 9] [%]	% B/B0 [3, 10] [%]	% B/B0 [3, 11] [%]	cross-reactivity [4] [%]	cross-reactivity [5] [%]	% CR = percentage cross-reactivity based on specificity to ketamine [3, 12] [%]	IC50, CR = concentration of potential cross-reactant that causes 50% displacement of signal [3] [mg/L]
CNC1(c2ccccc2Cl)CCCCC1=O (racemic) [Ketamine, (±)-2-(o-chlorophenyl)-2-(methylamino) cyclohexanone]	does not cross-react significantly	low levels of cross-reactivity	100.0	0.0029	92.1	82.8	67.9	42.6	25.0	18.4	11.6	100	< 0.6		
NC1(c2ccccc2Cl)CCCCC1=O (stereo not drawn) [Norketamine, [2-amino-2-(o-chlorophenyl)]cyclohexanone]			138.1	0.0021	86.9	66.8	64.5	45.3	22.7	15.1	10.5	4.6			
c1ccc(C2(N3CCCCC3)CCCCC2)cc1 [Phencyclidine]														<0.58	>0.5
COc1ccc2c(c1)[C@]13CCCC[C@@H]1[C@H](C2)N(C)CC3 [Dextromethorphan]														<0.58	>0.5
